Earlier results in US20210369631A1, “A LIPID-POLYMER HYBRID NANOPARTICLE” (NANOBRID INNOVATIONS PRIVATE LIMITED, priority 2019, published 2021).

log P | Compound
1.44 | O=C(CCCCCCC(=O)Nc1ccccc1)NO [Vorinostat]
10 | COC1=C(OC)C(=O)C(C/C=C(\C)CC/C=C(\C)CC/C=C(\C)CC/C=C(\C)CC/C=C(\C)CC/C=C(\C)CC/C=C(\C)CC/C=C(\C)CC/C=C(\C)CCC=C(C)C)=C(C)C1=O [coenzyme Q10]
3.49 | CCC(=O)O[C@]1(C(=O)CCl)[C@@H](C)C[C@H]2[C@@H]3CCC4=CC(=O)C=C[C@]4(C)[C@@]3(F)[C@@H](O)C[C@@]21C [clobetasol propionate]
